Data: patent US20210222225A1, “Medium for Disk Diffusion Method to Evaluate Antibiotic Sensitivity” (priority 2018, published 2021)

Columns and labels:
[1] = test system: ABA A532_R; experiment: Colistin disk diffusion, guanidine hydrochloride medium, A532_R; format: cell-based, Acinetobacter baumannii; conditions: 30% agar
Procedure: (§1) A concentration of agar particles (BD Diagnostic, Sparks, Md., USA) in Mueller-Hinton broth medium (BD Diagnostic) was adjusted to 5.1 g/L, which is 30% of 17 g/L, and guanidine hydrochloride was added to a concentration of 500 μg/ml, 50 μg/ml, or 5 μg/ml. Then, solidification was performed. On a surface of each medium thus prepared was evenly inoculated each of colistin-susceptible (S) or -resistant (R) Acinetobacter baumannii (ABA) strain, colistin-susceptible (S) or -resistant (R) Klebsiella pnemoniae (KPN) strain, and colistin-susceptible (S) or -resistant (R) Pseudomonas aeruginosa (PAE) strain, and a colistin disk was placed thereon. Then, pictures of a growth inhibition zone, which had been formed clear, around the disk were taken for each strain, and the results are illustrated in FIGS. 8 to 10.

[2] = test system: PAE P1624_R; experiment: Colistin disk diffusion, guanidine hydrochloride medium, P1624_R; format: cell-based, Pseudomonas aeruginosa; conditions: 30% agar
Procedure: as §1

[3] = test system: colistin-susceptible strains; experiment: Colistin disk diffusion, colistin-susceptible strains as a group (average, differences); format: cell-based; conditions: for Average, diameter (mm) of colistin inhibition zone, colistin-susceptible strains / Difference (S vs ACB-R), diameter (mm) of colistin inhibition zone / Difference (S vs mcr-1), diameter (mm) of colistin inhibition zone: protamine 100 μg/ml
Procedure: To each MHA thus modified was added protamine (Sigma-Aldrich, St Louis, Mo., USA) at a concentration of 100 μg/ml, and solidification was performed. Then, on a surface of the medium was evenly inoculated each of colistin-susceptible (S) or -resistant (R) Acinetobacter calcoaceticus-baumannii complex (ACB) strain, Pseudomonas aeruginosa ATCC27853 strain, Escherichia coli ATCC25922 strain, and mcr-1-harboring Enterobacter aerogenes strain, and a colistin disk was placed thereon. Subsequently, a diameter of a growth inhibition zone (colistin inhibition zone), which had been formed clear by diffusion of colistin to the agar around the colistin disk, was measured.
As in Example 1, a concentration of agar particles (BD Diagnostic, Sparks, Md., USA) in Mueller-Hinton broth medium (BD Diagnostic) was adjusted to 5.1 g/L, which is 30% of 17 g/L, and protamine (Sigma-Aldrich, St Louis, Mo., USA) was added thereto at a concentration of 150 μg/ml or 100 μg/ml. Then, solidification was performed. To compare effects depending on concentrations of agar and protamine, Muller-Hinton agar medium (BD Diagnostic) containing agar at a concentration of 17 g/L and medium obtained by adding, to the Muller-Hinton agar medium, protamine at a concentration of 100 μg/ml were prepared as controls. On a surface of each medium thus prepared was evenly inoculated each of colistin-susceptible (S) or -resistant (R) Acinetobacter calcoaceticus-baumannii complex (ACB) strain, Pseudomonas aeruginosa ATCC27853 strain, and mcr-1-harboring Enterobacter aerogenes strain, and a colistin disk was placed thereon. Then, it was determined whether each strain was grown, and a diameter of a growth inhibition zone, which had been formed clear around the disk, was measured. The results are illustrated in FIG. 1.
The following four bacterial strains were used to determine conditions for agar: colistin-susceptible (S) or -resistant (R) Acinetobacter calcoaceticus-baumannii complex (ACB) strain (N=2), Pseudomonas aeruginosa ATCC27853 strain, and mcr-1-harboring Enterobacter aerogenes strain. A concentration of agar particles (BD Diagnostic, Sparks, Md., USA) in Mueller-Hinton broth medium (BD Diagnostic) was adjusted to 17 g/L or 5.1 g/L that is 30% of 17 g/L. To each modified MHA was added protamine (Sigma-Aldrich, St Louis, Mo., USA) at a concentration of 100 μg/ml.
On a surface of each medium thus prepared was evenly inoculated each of colistin-susceptible (S) or -resistant (R) Acinetobacter calcoaceticus-baumannii complex (ACB) strain, Pseudomonas aeruginosa ATCC27853 strain, and mcr-1-harboring Enterobacter aerogenes strain, and a colistin disk was placed thereon. Then, it was determined whether each strain was grown, and a diameter of a colistin inhibition zone, which had been formed clear around the disk, was measured. The results are illustrated in FIGS. 2A and 2B. Pictures of an inhibition zone around the disk were taken for each strain, and the results are illustrated in FIGS. 3A, 3B, 4A, 4B, 5A, 5B, 6A and 6B.

[4] = test system: KPN K3070_S; experiment: Colistin disk diffusion, guanidine hydrochloride medium, K3070_S; format: cell-based, Klebsiella pnemoniae; conditions: 30% agar
Procedure: as §1

[5] = test system: ABA A14_S; experiment: Colistin disk diffusion, guanidine hydrochloride medium, A14_S; format: cell-based, Acinetobacter baumannii; conditions: 30% agar
Procedure: as §1

[6] = guanidine hydrochloride 5 μg/ml
[7] = guanidine hydrochloride 50 μg/ml
[8] = guanidine hydrochloride 500 μg/ml

colistin
Disk diffusion (mm) [1, 6]: 9 mm
Disk diffusion (mm) [1, 7]: 9 mm
Disk diffusion (mm) [1, 8]: 9 mm
Disk diffusion (mm) [2, 6]: 12 mm
Disk diffusion (mm) [2, 7]: 12 mm
Disk diffusion (mm) [2, 8]: 12 mm
Average, diameter (mm) of colistin inhibition zone, colistin-susceptible strains ([3]; 30% agar): 16 mm
Difference (S vs ACB-R), diameter (mm) of colistin inhibition zone ([3]; 30% agar): 5 mm
Difference (S vs mcr-1), diameter (mm) of colistin inhibition zone ([3]; 30% agar): 5 mm
Average, diameter (mm) of colistin inhibition zone, colistin-susceptible strains ([3]; 40% agar): 15 mm
Difference (S vs ACB-R), diameter (mm) of colistin inhibition zone ([3]; 40% agar): 4 mm
Difference (S vs mcr-1), diameter (mm) of colistin inhibition zone ([3]; 40% agar): 5 mm
Average, diameter (mm) of colistin inhibition zone, colistin-susceptible strains ([3]; 50% agar): 14 mm
Difference (S vs ACB-R), diameter (mm) of colistin inhibition zone ([3]; 50% agar): 4 mm
Difference (S vs mcr-1), diameter (mm) of colistin inhibition zone ([3]; 50% agar): 3 mm
Average, diameter (mm) of colistin inhibition zone, colistin-susceptible strains ([3]; 60% agar): 14 mm
Difference (S vs ACB-R), diameter (mm) of colistin inhibition zone ([3]; 60% agar): 1 mm
Difference (S vs mcr-1), diameter (mm) of colistin inhibition zone ([3]; 60% agar): 4 mm
Average, diameter (mm) of colistin inhibition zone, colistin-susceptible strains ([3]; 70% agar): 14 mm
Difference (S vs ACB-R), diameter (mm) of colistin inhibition zone ([3]; 70% agar): 3 mm
Difference (S vs mcr-1), diameter (mm) of colistin inhibition zone ([3]; 70% agar): 4 mm
Average, diameter (mm) of colistin inhibition zone, colistin-susceptible strains ([3]; 80% agar): 13 mm
Difference (S vs ACB-R), diameter (mm) of colistin inhibition zone ([3]; 80% agar): 1 mm
Difference (S vs mcr-1), diameter (mm) of colistin inhibition zone ([3]; 80% agar): 4 mm
Average, diameter (mm) of colistin inhibition zone, colistin-susceptible strains ([3]; 90% agar): 13 mm
Difference (S vs ACB-R), diameter (mm) of colistin inhibition zone ([3]; 90% agar): 1 mm
Difference (S vs mcr-1), diameter (mm) of colistin inhibition zone ([3]; 90% agar): 3 mm
Average, diameter (mm) of colistin inhibition zone, colistin-susceptible strains ([3]; 100% agar): 13 mm
Difference (S vs ACB-R), diameter (mm) of colistin inhibition zone ([3]; 100% agar): 2 mm
Difference (S vs mcr-1), diameter (mm) of colistin inhibition zone ([3]; 100% agar): 3 mm
size of a growth inhibition zone in the colistin-susceptible strains ([3]; agar 5.1 g/L (30%) compared with 17 g/L, FIG. 1): increased
diameter of the growth inhibition zone in the colistin-susceptible strains ([3]; agar 5.1 g/L and protamine 100 μg/ml compared with agar 17 g/L, FIGS. 2A to 6B): remarkably increased
Disk diffusion (mm) [4, 6]: 17 mm
Disk diffusion (mm) [4, 7]: 16 mm
Disk diffusion (mm) [4, 8]: 17 mm
Disk diffusion (mm) [5, 6]: 15 mm
Disk diffusion (mm) [5, 7]: 15 mm
Disk diffusion (mm) [5, 8]: 15 mm
